Experimental data as given in PubChem BioAssay (NCI).
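Each compound was tested at five concentrations against cells in 96-well plates for 48 hours. The concentration for full growth arrest is given as TGI.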

Columns and labels:
Assay in all cases: DTP human tumour cell line panel, 48 h
UACC-62 melanoma = system: UACC-62 melanoma
HOP-92 NSCLC = system: HOP-92 NSCLC
SW-620 colon = system: SW-620 colon
CAKI-1 renal = system: CAKI-1 renal
A498 renal = system: A498 renal
LOX IMVI melanoma = system: LOX IMVI melanoma
DU-145 prostate = system: DU-145 prostate
NCI-H460 lung = system: NCI-H460 lung
K-562 leukemia = system: K-562 leukemia
MOLT-4 leukemia = system: MOLT-4 leukemia
OVCAR-5 ovarian = system: OVCAR-5 ovarian
HOP-62 NSCLC = system: HOP-62 NSCLC
MDA-MB-435 = system: MDA-MB-435
M14 melanoma = system: M14 melanoma
NCI-H522 lung = system: NCI-H522 lung
HS 578T breast = system: HS 578T breast
SK-MEL-5 melanoma = system: SK-MEL-5 melanoma
786-0 renal = system: 786-0 renal
HT29 colon = system: HT29 colon
EKVX NSCLC = system: EKVX NSCLC

| Structure (SMILES) | TGI (UACC-62 melanoma) [µM] | TGI (HOP-92 NSCLC) [µM] | TGI (SW-620 colon) [µM] | TGI (CAKI-1 renal) [µM] | TGI (A498 renal) [µM] | TGI (LOX IMVI melanoma) [µM] | TGI (DU-145 prostate) [µM] | TGI (NCI-H460 lung) [µM] | TGI (K-562 leukemia) [µM] | TGI (MOLT-4 leukemia) [µM] | TGI (OVCAR-5 ovarian) [µM] | TGI (HOP-62 NSCLC) [µM] | TGI (MDA-MB-435) [µM] | TGI (M14 melanoma) [µM] | TGI (NCI-H522 lung) [µM] | TGI (HS 578T breast) [µM] | TGI (SK-MEL-5 melanoma) [µM] | TGI (786-0 renal) [µM] | TGI (HT29 colon) [µM] | TGI (EKVX NSCLC) [µM] |
| --- | --- | --- | --- | --- | --- | --- | --- | --- | --- | --- | --- | --- | --- | --- | --- | --- | --- | --- | --- | --- |
| O=C(Cn1c2ccc(Br)cc2c2nc3ccccc3nc21)Nc1ccccc1 | > 100 | 32.4 | 66.8 | 86.9 | > 100 | 29.2 | > 100 | > 100 | > 100 | > 100 | > 100 | > 100 | > 100 | > 100 | 40.5 | 76.9 | > 100 | 28.7 | > 100 |  |
| O=C1NCN(c2ccccc2)C12CCN(CC1COc3ccccc3O1)CC2 (stereo not drawn) | > 100 |  | > 100 | > 100 | > 100 | > 100 | > 100 | > 100 | > 100 | > 100 | > 100 | 52.8 | > 100 | > 100 | > 100 | 71.8 | > 100 | > 100 | > 100 | 98.2 |
| Cn1nnc2c3c(N(CCO)CCO)ccnc3ccc21 | > 100 |  | > 100 | > 100 |  | > 100 | > 100 | > 100 | > 100 | > 100 | > 100 | > 100 | > 100 | > 100 |  | > 100 | > 100 | > 100 | > 100 | > 100 |
| Cc1nn(C(=O)c2ccncc2)c2c1C(c1ccccc1[N+](=O)[O-])SC(N)=N2 (stereo not drawn) | > 10 | > 10 | > 10 | > 10 |  | > 10 | > 10 | > 10 | > 10 | > 10 | > 10 | > 10 | > 10 | > 10 |  | > 10 | > 10 | > 10 | > 10 | > 10 |
